# Results: patent US10604526B2, “Chemokine receptor modulators and uses thereof” (RAPT THERAPEUTICS, INC., priority 2016, dated 2020)
# Biological target: T1, hCCR4 (Homo sapiens, UniProt P51679)
# T1 sequence (P51679 1-360): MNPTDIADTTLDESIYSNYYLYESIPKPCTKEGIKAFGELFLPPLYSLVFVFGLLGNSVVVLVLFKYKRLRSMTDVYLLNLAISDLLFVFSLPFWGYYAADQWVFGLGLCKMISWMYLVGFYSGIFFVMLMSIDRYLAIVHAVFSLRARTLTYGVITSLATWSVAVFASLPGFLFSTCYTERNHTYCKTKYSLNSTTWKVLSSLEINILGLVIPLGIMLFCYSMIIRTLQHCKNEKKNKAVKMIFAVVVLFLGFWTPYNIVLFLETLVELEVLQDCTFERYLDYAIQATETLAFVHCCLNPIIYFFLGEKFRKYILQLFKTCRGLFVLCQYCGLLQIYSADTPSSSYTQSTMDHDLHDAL
# Assay: Calcium flux assay
# Format: cell-based
# Details: Chem5-hCCR4 cells, CCL22 at EC80 of 1.5 nM, FLIPR Calcium 6 dye; read-out: Potency (IC50)
# Outline: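 Chem5 cells expressing hCCR4 were serum-starved for 2 h, loaded with Calcium 6 dye plus 2.5 mM probenecid, then given compound for 1 h at 37 °C (0.5% DMSO). CCL22 was added from a 7.5 nM working solution (5× EC80 of 1.5 nM). IC50 came from ΔF/Fmin (485/525 nm) by 4-parameter fit.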
row,Molecule,IC50
1,"CC(=O)N[C@@H](C)CN1CCC[C@H](C2CN(c3cnc4c(C(F)(F)F)nn([C@H](C)c5ccc(Cl)cc5Cl)c4n3)C2)C1 [Example 106, N—((S)-1-((R)-3-(1-(1-((R)-1-(2,4-dichlorophenyl)ethyl)-3-(trifluoromethyl)-1H-pyrazolo[3,4-b]pyrazin-6-yl)azetidin-3-yl)piperidin-1-yl)propan-2-yl)acetamide]",< 100 nM
2,"N-(2-((R)-3-(1-(1-((R)-1-(2,4-dichlorophenyl)ethyl)-3-(trifluoromethyl)-1H-pyrazolo[3,4-b]pyrazin-6-yl)azetidin-3-yl)piperidin-1-yl)ethyl)propane-2-sulfonamide and N-(2-((S)-3-(1-(1-((R)-1-(2,4-dichlorophenyl)ethyl)-3-(trifluoromethyl)-1H-pyrazolo[3,4-b]pyrazin-6-yl)azetidin-3-yl)piperidin-1-yl)ethyl)propane-2-sulfonamide [Example 66]",< 100 nM
